Measurements published in ChEMBL document CHEMBL4184139, “Adamantyl- and other polycyclic cage-based conjugates of desferrioxamine B (DFOB) for treating iron-mediated toxicity in cell models of Parkinson's disease” (Bioorg Med Chem Lett, 2017).
Active and inactive are the calls of the source. No cut-off for these calls is given here.

Legend:
[1] = Octanol-water partition coefficient, log P of the compound at 1 mg by RP-HPLC analysis; format: physicochemical
SK-N-BE(2)-M17 [2] = assay: Cytoprotection against PQ-induced cell death in human SK-N-BE(2)-M17 cells assessed as increase in cell viability at 100 uM pretreated for 2 hrs followed by 1 mM PQ addition measured after 24 hrs by MTT assay; format: functional, cell-based
SK-N-BE(2)-M17 [3] = assay: Cytoprotection against PQ-induced cell death in human SK-N-BE(2)-M17 cells assessed as increase in cell viability at 100 uM pretreated for 2 hrs followed by 1 mM PQ addition measured after 24 hrs by LDH assay; format: functional, cell-based
SK-N-BE(2)-M17 [4] = assay: Cytoprotection against H2O2-induced cell death in human SK-N-BE(2)-M17 cells assessed as increase in cell viability at 100 uM pretreated for 2 hrs followed by 1 mM H2O2 addition measured after 24 hrs by MTT assay; format: functional, cell-based
SK-N-BE(2)-M17 [5] = assay: Cytoprotection against H2O2-induced cell death in human SK-N-BE(2)-M17 cells assessed as increase in cell viability at 100 uM pretreated for 2 hrs followed by 1 mM H2O2 addition measured after 24 hrs by LDH assay; format: functional, cell-based
SK-N-BE(2)-M17 [6] = assay: Cytoprotection against PQ-induced cell death in human SK-N-BE(2)-M17 cells assessed as increase in cell viability at 100 uM treated 2 hrs post 2 mM PQ treatment measured after 24 hrs by MTT assay; format: functional, cell-based
SK-N-BE(2)-M17 [7] = assay: Cytoprotection against PQ-induced cell death in human SK-N-BE(2)-M17 cells assessed as increase in cell viability at 100 uM treated 2 hrs post 2 mM PQ treatment measured after 24 hrs by LDH assay; format: functional, cell-based
SK-N-BE(2)-M17 [8] = assay: Cytoprotection against H2O2-induced cell death in human SK-N-BE(2)-M17 cells assessed as increase in cell viability at 100 uM treated 2 hrs post 0.8 mM H2O2 treatment measured after 24 hrs by MTT assay; format: functional, cell-based
SK-N-BE(2)-M17 [9] = assay: Cytoprotection against H2O2-induced cell death in human SK-N-BE(2)-M17 cells assessed as increase in cell viability at 100 uM treated 2 hrs post 0.8 mM H2O2 treatment measured after 24 hrs by LDH assay; format: functional, cell-based
SK-N-BE(2)-M17 [10] = assay: Cytotoxicity against human SK-N-BE(2)-M17 cells at 100 uM 24 hrs by MTT assay; format: cell-based; details: sk-n-be(2)-m17, 24 h
SK-N-BE(2)-M17 [11] = assay: Cytotoxicity against human SK-N-BE(2)-M17 cells at 100 uM 24 hrs by LDH release assay; format: cell-based; details: sk-n-be(2)-m17, 24 h
[12] = Binding affinity to Fe3+ assessed as [M+H]+ adduct formation by LC-MS/MS analysis
[13] = Binding affinity to Fe3+ assessed as [M+2H]+ adduct formation by LC-MS/MS analysis
[14] = Binding affinity to Fe3+ assessed as change in retention time for compound-Fe3+ complex by RP-HPLC analysis relative to free ligand
Astrocyte [15] = assay: Cytoprotection against H2O2-induced cell death in BSO pretreated C57BL6/J mouse brain primary astrocytes assessed as increase in cell viability at 10 uM pretreated for 2 hrs followed by H2O2 addition measured after 24 hrs by MTT assay; format: functional, cell-based
SK-N-BE(2)-M17 [16] = assay: Cytoprotection against PQ-induced cell death in human SK-N-BE(2)-M17 cells assessed as increase in cell viability at 100 uM treated post 200 uM Fecl3 and 1 mM PQ treatment measured after 24 hrs by MTT assay; format: functional, cell-based
SK-N-BE(2)-M17 [17] = assay: Cytoprotection against PQ-induced cell death in human SK-N-BE(2)-M17 cells assessed as increase in cell viability at 100 uM treated post 200 uM Fecl3 and 1 mM PQ treatment measured after 24 hrs by LDH assay; format: functional, cell-based
SK-N-BE(2)-M17 [18] = assay: Cytoprotection against PQ-induced cell death in human SK-N-BE(2)-M17 cells assessed as increase in cell viability treated 2 hrs post 2 mM PQ treatment measured after 24 hrs by MTT assay; format: functional, cell-based
Astrocyte [19] = assay: Cytoprotection against H2O2-induced cell death in BSO pretreated C57BL6/J mouse brain primary astrocytes assessed as increase in cell viability at 10 uM pretreated for 2 hrs followed by H2O2 addition measured after 24 hrs by LDH release assay; format: functional, cell-based

SMILES	logP [1]	Activity [12]	Activity [13]	Retention time [14]	Activity (SK-N-BE(2)-M17 [2])	Activity (SK-N-BE(2)-M17 [3])	Activity (SK-N-BE(2)-M17 [4])	Activity (SK-N-BE(2)-M17 [5])	Activity (SK-N-BE(2)-M17 [6])	Activity (SK-N-BE(2)-M17 [7])	Activity (SK-N-BE(2)-M17 [8])	Activity (SK-N-BE(2)-M17 [9])	Activity (SK-N-BE(2)-M17 [10])	Activity (SK-N-BE(2)-M17 [11])	Activity (Astrocyte [15])	Activity (SK-N-BE(2)-M17 [16])	Activity (SK-N-BE(2)-M17 [17])	EC50 (SK-N-BE(2)-M17 [18])	Activity (Astrocyte [19])
CC(=O)N(O)CCCCCNC(=O)CCC(=O)N(O)CCCCCNC(=O)CCC(=O)N(O)CCCCCNC(=O)CC12CC3CC(CC(Br)(C3)C1)C2	1.84	Active	Active	1.09 min	inactive	inactive	inactive	inactive	inactive	inactive	inactive	inactive	Non-Toxic	Non-Toxic	–	–	–	–	–
COC(=O)c1ccccc1C(=O)OC [DIMETHYL PHTHALATE]	1.59	–	–	–	–	–	–	–	–	–	–	–	–	–	–	–	–	–	–
CC(=O)N(O)CCCCCNC(=O)CCC(=O)N(O)CCCCCNC(=O)CCC(=O)N(O)CCCCCNC(=O)[C@H]1C[C@H]2CC[C@H]1C2 (relative stereo)	0.55	Active	Active	0.08 min	Active	Active	Active	Active	Active	Active	Active	Active	Non-Toxic	Non-Toxic	–	Active	Active	–	–
CC(=O)N(O)CCCCCNC(=O)CCC(=O)N(O)CCCCCNC(=O)CCC(=O)N(O)CCCCCNC(=O)C12CC3(C)CC(C)(CC(C)(C3)C1)C2	2.54	Active	Active	1.85 min	Active	Active	Active	Active	Active	–	Active	–	Non-Toxic	Non-Toxic	Active	Active	Active	3.4 µM	Active
c1ccc2ccccc2c1	3.27	–	–	–	–	–	–	–	–	–	–	–	–	–	–	–	–	–	–
CC(=O)N(O)CCCCCNC(=O)CCC(=O)N(O)CCCCCNC(=O)CCC(=O)N(O)CCCCCNC(=O)[C@H]1C[C@H]2C=C[C@H]1C2	0.5 to 1.4	Active	Active	-0.52 to 0 min	Active	Active	Active	Active	Active	Active	Active	Active	Non-Toxic	Non-Toxic	–	Active	Active	–	–
CC(=O)N(O)CCCCCNC(=O)CCC(=O)N(O)CCCCCNC(=O)CCC(=O)N(O)CCCCCNC(=O)C1CC2CCCC(C2)C1 (stereo not given)	1.87	Active	Active	0.65 min	inactive	inactive	inactive	inactive	inactive	inactive	inactive	inactive	Non-Toxic	Non-Toxic	Active	Active	Active	–	Active
c1ccc2c(c1)oc1ccccc12 [DIBENZOFURAN]	3.76	–	–	–	–	–	–	–	–	–	–	–	–	–	–	–	–	–	–
CC(=O)N(O)CCCCCNC(=O)CCC(=O)N(O)CCCCCNC(=O)CCC(=O)N(O)CCCCCNC(=O)C12CC3CC(CC1C3)C2	0.98	Active	Active	0.48 min	Active	Active	Active	Active	Active	–	Active	–	Non-Toxic	Non-Toxic	Active	Active	–	30 µM	–
CC(=O)N(O)CCCCCNC(=O)CCC(=O)N(O)CCCCCNC(=O)CCC(=O)N(O)CCCCCNC(=O)C[C@H]1C[C@H]2CC[C@H]1C2 (relative stereo)	1.16	Active	Active	0.27 min	Active	Active	Active	Active	Active	Active	Active	Active	Non-Toxic	Non-Toxic	–	–	–	–	–

Now from value to compound, other results behind:

logP [1]	Activity [12]	Activity [13]	Retention time [14]	SMILES	Activity (SK-N-BE(2)-M17 [2])	Activity (SK-N-BE(2)-M17 [3])	Activity (SK-N-BE(2)-M17 [4])	Activity (SK-N-BE(2)-M17 [5])	Activity (SK-N-BE(2)-M17 [6])	Activity (SK-N-BE(2)-M17 [7])	Activity (SK-N-BE(2)-M17 [8])	Activity (SK-N-BE(2)-M17 [9])	Activity (SK-N-BE(2)-M17 [10])	Activity (SK-N-BE(2)-M17 [11])	Activity (Astrocyte [15])	Activity (SK-N-BE(2)-M17 [16])	Activity (SK-N-BE(2)-M17 [17])	EC50 (SK-N-BE(2)-M17 [18])	Activity (Astrocyte [19])
1.9	Active	Active	0.91 min	CC(=O)N(O)CCCCCNC(=O)CCC(=O)N(O)CCCCCNC(=O)CCC(=O)N(O)CCCCCNC(=O)C12CC3CC(CC(Br)(C3)C1)C2	inactive	inactive	inactive	inactive	inactive	inactive	inactive	inactive	Non-Toxic	Non-Toxic	Active	–	–	–	–
1.32	Active	Active	0.43 min	CC(=O)N(O)CCCCCNC(=O)CCC(=O)N(O)CCCCCNC(=O)CCC(=O)N(O)CCCCCNC(=O)C12CC3CC(CC(C3)C1)C2	Active	Active	Active	Active	Active	Active	Active	Active	Non-Toxic	Non-Toxic	Active	Active	Active	–	Active
1.84	Active	Active	0.83 min	CC(=O)N(O)CCCCCNC(=O)CCC(=O)N(O)CCCCCNC(=O)CCC(=O)N(O)CCCCCNC(=O)C12CC3CC(CC(Cl)(C3)C1)C2	inactive	inactive	inactive	inactive	inactive	inactive	inactive	inactive	Non-Toxic	Non-Toxic	Active	Active	–	–	Active
0.15	Active	Active	-0.52 min	CC(=O)N(O)CCCCCNC(=O)CCC(=O)N(O)CCCCCNC(=O)CCC(=O)N(O)CCCCCNC(=O)CC12CC3CC(CC(O)(C3)C1)C2	Active	Active	Active	Active	–	–	–	–	Non-Toxic	Non-Toxic	–	–	–	–	–
2.09	Active	Active	1.71 min	CC(=O)N(O)CCCCCNC(=O)CCC(=O)N(O)CCCCCNC(=O)CCC(=O)N(O)CCCCCNC(=O)C12CC3CC(C1)CC(c1ccc([N+](=O)[O-])cc1)(C3)C2	Active	Active	Active	Active	Active	Active	Active	Active	Non-Toxic	Non-Toxic	Active	–	Active	–	Active
